# Experimental data from patent publication US20080318989A1, “Pyrimidine Kinase Inhibitors” (priority 2005, published 2008).
# Tested on: HT29 colon cancer cell line
# Experiment: Cellular proliferation/viability assay (Cell-Titer-Glo), HT29
# Assay type: cell-based
# Conditions: Homo sapiens, HT-29, 120 h; HT29, 5 days incubation
# Description: (§1) Potency of test compounds in inhibiting cellular proliferation and/or cellular viability was estimated using a cellular ATP assay (Cell-Titer-Glo, Promega). Cells (HCT116, HT29 colon cancer cell lines, MCF-7 breast cancer cell line) were seeded in 384-well plates (Greiner μClear) at an appropriate density in 50:50 DMEM/Hams F-12 medium supplemented with 10% fetal calf serum, and allowed to attach overnight. Test compounds were sequentially diluted in DMSO and then culture medium, and added to the cells at appropriate concentrations. Cells were incubated with compound for 5 days. Cell number/viability was estimated using Cell-Titer-Glo reagent (Promega) according to manufacturers instructions.
row,IC50 [µM],Compound
1,0.1,CCN1C(=O)C(C)(C)c2cc(Nc3ncc(Cl)c(Nc4ccccc4NC(=O)/C=C/c4ccccc4)n3)ccc21 [compound 49]

# Target: T1, Aurora A (Homo sapiens, UniProt O14965)
# T1 sequence (O14965 1-403): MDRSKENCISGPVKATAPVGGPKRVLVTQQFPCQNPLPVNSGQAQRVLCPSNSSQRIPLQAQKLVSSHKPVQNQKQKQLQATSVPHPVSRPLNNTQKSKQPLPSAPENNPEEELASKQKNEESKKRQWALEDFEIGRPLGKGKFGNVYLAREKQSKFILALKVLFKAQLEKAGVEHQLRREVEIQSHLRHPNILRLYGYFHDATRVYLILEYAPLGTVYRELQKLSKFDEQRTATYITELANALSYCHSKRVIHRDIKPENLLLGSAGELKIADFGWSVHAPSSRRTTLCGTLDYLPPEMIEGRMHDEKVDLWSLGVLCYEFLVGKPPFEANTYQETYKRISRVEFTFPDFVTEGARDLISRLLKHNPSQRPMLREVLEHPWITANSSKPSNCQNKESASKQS
# Experiment: Aurora A in vitro kinase assay (ELISA)
# Assay type: biochemical
# Conditions: 30 μM ATP, 45 minutes
# Description: Kinase activities were measured by Enzyme-Linked Immunosorbent Assay (ELISA): Maxisorp 384-well plates (Nunc) were coated with recombinant fusion protein comprising residues 1-15 of Histone H3 fused to the N-terminus of Glutathione-S-Transferase. Plates were then blocked with a solution of 1 mg/mL I-block (Tropix Inc) in phosphate-buffered saline. Kinase reactions were carried out in the wells of the ELISA plate by combining an appropriate amount of Aur A and B kinases and/or mutants thereof with test compound and 30 μM ATP. The reaction buffer was 1× Kinase Buffer (Cell Signaling Technologies) supplemented with 1 μg/mL I-block. Reactions were stopped after 45 minutes by addition of 25 mM EDTA. After washing, substrate phosphorylation was detected by addition of anti-phospho-Histone H3 (Ser 10) 6G3 mAb (Cell Signaling cat #9706) and sheep anti-mouse pAb-HRP (Amersham cat# NA931V), followed by calorimetric development with TMB.
row,IC50 [µM],Compound
1,0.0108,CCN1C(=O)C(C)(C)c2cc(Nc3ncc(F)c(Nc4ccc(C(=O)NC(C)(C)C)cc4)n3)ccc21 [compound 5]
2,0.0231,CCN1C(=O)C(C)(C)c2cc(Nc3ncc(F)c(Nc4ccc(C(=O)Nc5ccccn5)cc4)n3)ccc21 [compound 26]
3,0.0072,COCCN1C(=O)C(C)(C)c2cc(Nc3ncc(F)c(Nc4ccccc4NC(=O)C4CC4)n3)ccc21 [compound 38]
4,0.0021,CC(=O)N1CCc2cc(Nc3ncc(Cl)c(Nc4ccccc4C(=O)NC4CC4)n3)ccc21 [compound 44]
5,0.0248,CC(=O)N1CC(C)(C)c2cc(Nc3ncc(Cl)c(Nc4ccccc4C(=O)NC4CC4)n3)ccc21 [compound 48]
6,0.006,O=C(/C=C/c1ccccc1)Nc1ccccc1Nc1nc(Nc2ccc3c(c2)CC(=O)N3)ncc1Cl [compound 50]
7,0.0006,O=C(Nc1ccccc1Nc1nc(Nc2ccc3c(c2)CS(=O)(=O)C3)ncc1Cl)C1CC1 [compound 58]
8,0.0104,CN1C(=O)C(C)(C)c2cc(Nc3ncc(F)c(Oc4ccc(C(=O)Nc5ccccn5)cc4)n3)ccc21 [compound 59]

# Tested on: HCT116 colon cancer cell line
# Experiment: Cellular proliferation/viability assay (Cell-Titer-Glo), HCT116
# Assay type: cell-based
# Conditions: Homo sapiens, HCT-116, 120 h; HCT116, 5 days incubation
# Description: as §1
row,IC50 [µM],Compound
1,0.11,CCN1C(=O)C(C)(C)c2cc(Nc3ncc(Cl)c(Nc4ccccc4NC(=O)/C=C/c4ccccc4)n3)ccc21 [compound 49]
